{
  "source": "the NIST ThermoML archive (doi:10.1016/j.jct.2014.12.023)",
  "experiment": "activity coefficient (dimensionless); of the first substance listed, at infinite dilution; xn = mol fraction of the nth substance listed",
  "conditions": "87.4 kPa, Liquid, Chromatography, x1 = 0",
  "note": "Numbers after ± are expanded uncertainties.",
  "data": [
    {"smiles": "O=C1CCCC1", "note": "[cyclopentanone] + O=S(=O)([N-]S(=O)(=O)C(F)(F)F)C(F)(F)F.O=S(=O)([N-]S(=O)(=O)C(F)(F)F)C(F)(F)F.c1ccc2cc(C[N+]3(CCCCCCCCC[N+]4(Cc5ccc6ccccc6c5)CCCC4)CCCC3)ccc2c1", "values": [
      {"measurement": "activity coefficient", "setting": "313 K", "value": "0.318 ± 0.028"},
      {"measurement": "activity coefficient", "setting": "323 K", "value": "0.324 ± 0.028"},
      {"measurement": "activity coefficient", "setting": "333 K", "value": "0.33 ± 0.028"},
      {"measurement": "activity coefficient", "setting": "343 K", "value": "0.347 ± 0.028"}
    ]},
    {"smiles": "CCO", "note": "[ethanol] + O=S(=O)([N-]S(=O)(=O)C(F)(F)F)C(F)(F)F.O=S(=O)([N-]S(=O)(=O)C(F)(F)F)C(F)(F)F.c1ccc2cc(C[N+]3(CCCCCCCCC[N+]4(Cc5ccc6ccccc6c5)CCCC4)CCCC3)ccc2c1", "values": [
      {"measurement": "activity coefficient", "setting": "313 K", "value": "1 ± 0.044"},
      {"measurement": "activity coefficient", "setting": "323 K", "value": "1.01 ± 0.045"},
      {"measurement": "activity coefficient", "setting": "333 K", "value": "0.937 ± 0.043"},
      {"measurement": "activity coefficient", "setting": "343 K", "value": "0.891 ± 0.041"}
    ]},
    {"smiles": "CCOC(C)=O", "note": "[ethyl acetate] + O=S(=O)([N-]S(=O)(=O)C(F)(F)F)C(F)(F)F.O=S(=O)([N-]S(=O)(=O)C(F)(F)F)C(F)(F)F.c1ccc2cc(C[N+]3(CCCCCCCCC[N+]4(Cc5ccc6ccccc6c5)CCCC4)CCCC3)ccc2c1", "values": [
      {"measurement": "activity coefficient", "setting": "313 K", "value": "0.541 ± 0.032"},
      {"measurement": "activity coefficient", "setting": "323 K", "value": "0.565 ± 0.032"},
      {"measurement": "activity coefficient", "setting": "333 K", "value": "0.601 ± 0.033"},
      {"measurement": "activity coefficient", "setting": "343 K", "value": "0.628 ± 0.034"}
    ]},
    {"smiles": "CCCCCCC", "note": "[heptane] + O=S(=O)([N-]S(=O)(=O)C(F)(F)F)C(F)(F)F.O=S(=O)([N-]S(=O)(=O)C(F)(F)F)C(F)(F)F.c1ccc2cc(C[N+]3(CCCCCCCCC[N+]4(Cc5ccc6ccccc6c5)CCCC4)CCCC3)ccc2c1", "values": [
      {"measurement": "activity coefficient", "setting": "313 K", "value": "6.72 ± 0.38"},
      {"measurement": "activity coefficient", "setting": "323 K", "value": "5.97 ± 0.33"},
      {"measurement": "activity coefficient", "setting": "333 K", "value": "5.44 ± 0.31"},
      {"measurement": "activity coefficient", "setting": "343 K", "value": "4.65 ± 0.29"}
    ]},
    {"smiles": "CCCCCC", "note": "[hexane] + O=S(=O)([N-]S(=O)(=O)C(F)(F)F)C(F)(F)F.O=S(=O)([N-]S(=O)(=O)C(F)(F)F)C(F)(F)F.c1ccc2cc(C[N+]3(CCCCCCCCC[N+]4(Cc5ccc6ccccc6c5)CCCC4)CCCC3)ccc2c1", "values": [
      {"measurement": "activity coefficient", "setting": "313 K", "value": "4.73 ± 0.24"},
      {"measurement": "activity coefficient", "setting": "323 K", "value": "3.9 ± 0.2"}
    ]},
    {"smiles": "CO", "note": "[methanol] + O=S(=O)([N-]S(=O)(=O)C(F)(F)F)C(F)(F)F.O=S(=O)([N-]S(=O)(=O)C(F)(F)F)C(F)(F)F.c1ccc2cc(C[N+]3(CCCCCCCCC[N+]4(Cc5ccc6ccccc6c5)CCCC4)CCCC3)ccc2c1", "values": [
      {"measurement": "activity coefficient", "setting": "313 K", "value": "0.821 ± 0.038"}
    ]},
    {"smiles": "CCCCCCCC", "note": "[octane] + O=S(=O)([N-]S(=O)(=O)C(F)(F)F)C(F)(F)F.O=S(=O)([N-]S(=O)(=O)C(F)(F)F)C(F)(F)F.c1ccc2cc(C[N+]3(CCCCCCCCC[N+]4(Cc5ccc6ccccc6c5)CCCC4)CCCC3)ccc2c1", "values": [
      {"measurement": "activity coefficient", "setting": "313 K", "value": "8.51 ± 0.48"},
      {"measurement": "activity coefficient", "setting": "323 K", "value": "7.57 ± 0.41"},
      {"measurement": "activity coefficient", "setting": "333 K", "value": "7.4 ± 0.39"},
      {"measurement": "activity coefficient", "setting": "343 K", "value": "6.71 ± 0.37"}
    ]},
    {"smiles": "CCCC(C)=O", "note": "[pentan-2-one] + O=S(=O)([N-]S(=O)(=O)C(F)(F)F)C(F)(F)F.O=S(=O)([N-]S(=O)(=O)C(F)(F)F)C(F)(F)F.c1ccc2cc(C[N+]3(CCCCCCCCC[N+]4(Cc5ccc6ccccc6c5)CCCC4)CCCC3)ccc2c1", "values": [
      {"measurement": "activity coefficient", "setting": "313 K", "value": "0.432 ± 0.029"},
      {"measurement": "activity coefficient", "setting": "323 K", "value": "0.437 ± 0.029"},
      {"measurement": "activity coefficient", "setting": "333 K", "value": "0.444 ± 0.03"},
      {"measurement": "activity coefficient", "setting": "343 K", "value": "0.448 ± 0.03"}
    ]},
    {"smiles": "CCCO", "note": "[propan-1-ol] + O=S(=O)([N-]S(=O)(=O)C(F)(F)F)C(F)(F)F.O=S(=O)([N-]S(=O)(=O)C(F)(F)F)C(F)(F)F.c1ccc2cc(C[N+]3(CCCCCCCCC[N+]4(Cc5ccc6ccccc6c5)CCCC4)CCCC3)ccc2c1", "values": [
      {"measurement": "activity coefficient", "setting": "313 K", "value": "1.33 ± 0.083"},
      {"measurement": "activity coefficient", "setting": "323 K", "value": "1.07 ± 0.057"},
      {"measurement": "activity coefficient", "setting": "333 K", "value": "1.02 ± 0.045"},
      {"measurement": "activity coefficient", "setting": "343 K", "value": "1.01 ± 0.044"}
    ]},
    {"smiles": "CC(C)O", "note": "[propan-2-ol] + O=S(=O)([N-]S(=O)(=O)C(F)(F)F)C(F)(F)F.O=S(=O)([N-]S(=O)(=O)C(F)(F)F)C(F)(F)F.c1ccc2cc(C[N+]3(CCCCCCCCC[N+]4(Cc5ccc6ccccc6c5)CCCC4)CCCC3)ccc2c1", "values": [
      {"measurement": "activity coefficient", "setting": "313 K", "value": "1.21 ± 0.061"},
      {"measurement": "activity coefficient", "setting": "323 K", "value": "1.09 ± 0.051"},
      {"measurement": "activity coefficient", "setting": "333 K", "value": "1.05 ± 0.048"},
      {"measurement": "activity coefficient", "setting": "343 K", "value": "0.992 ± 0.045"}
    ]},
    {"smiles": "c1ccncc1", "note": "[pyridine] + O=S(=O)([N-]S(=O)(=O)C(F)(F)F)C(F)(F)F.O=S(=O)([N-]S(=O)(=O)C(F)(F)F)C(F)(F)F.c1ccc2cc(C[N+]3(CCCCCCCCC[N+]4(Cc5ccc6ccccc6c5)CCCC4)CCCC3)ccc2c1", "values": [
      {"measurement": "activity coefficient", "setting": "313 K", "value": "0.263 ± 0.028"},
      {"measurement": "activity coefficient", "setting": "323 K", "value": "0.266 ± 0.028"},
      {"measurement": "activity coefficient", "setting": "333 K", "value": "0.27 ± 0.028"},
      {"measurement": "activity coefficient", "setting": "343 K", "value": "0.287 ± 0.028"}
    ]},
    {"smiles": "ClC(Cl)(Cl)Cl", "note": "[tetrachloromethane] + O=S(=O)([N-]S(=O)(=O)C(F)(F)F)C(F)(F)F.O=S(=O)([N-]S(=O)(=O)C(F)(F)F)C(F)(F)F.c1ccc2cc(C[N+]3(CCCCCCCCC[N+]4(Cc5ccc6ccccc6c5)CCCC4)CCCC3)ccc2c1", "values": [
      {"measurement": "activity coefficient", "setting": "313 K", "value": "1.45 ± 0.07"},
      {"measurement": "activity coefficient", "setting": "323 K", "value": "1.47 ± 0.071"},
      {"measurement": "activity coefficient", "setting": "333 K", "value": "1.51 ± 0.073"},
      {"measurement": "activity coefficient", "setting": "343 K", "value": "1.52 ± 0.074"}
    ]},
    {"smiles": "Cc1ccccc1", "note": "[toluene] + O=S(=O)([N-]S(=O)(=O)C(F)(F)F)C(F)(F)F.O=S(=O)([N-]S(=O)(=O)C(F)(F)F)C(F)(F)F.c1ccc2cc(C[N+]3(CCCCCCCCC[N+]4(Cc5ccc6ccccc6c5)CCCC4)CCCC3)ccc2c1", "values": [
      {"measurement": "activity coefficient", "setting": "313 K", "value": "0.714 ± 0.035"},
      {"measurement": "activity coefficient", "setting": "323 K", "value": "0.721 ± 0.035"},
      {"measurement": "activity coefficient", "setting": "333 K", "value": "0.723 ± 0.036"},
      {"measurement": "activity coefficient", "setting": "343 K", "value": "0.727 ± 0.036"}
    ]},
    {"smiles": "CCN(CC)CC", "note": "[triethylamine] + O=S(=O)([N-]S(=O)(=O)C(F)(F)F)C(F)(F)F.O=S(=O)([N-]S(=O)(=O)C(F)(F)F)C(F)(F)F.c1ccc2cc(C[N+]3(CCCCCCCCC[N+]4(Cc5ccc6ccccc6c5)CCCC4)CCCC3)ccc2c1", "values": [
      {"measurement": "activity coefficient", "setting": "313 K", "value": "0.762 ± 0.098"},
      {"measurement": "activity coefficient", "setting": "323 K", "value": "1.22 ± 0.081"},
      {"measurement": "activity coefficient", "setting": "333 K", "value": "1.35 ± 0.068"},
      {"measurement": "activity coefficient", "setting": "343 K", "value": "1.45 ± 0.072"}
    ]}
  ]
}
